According to publication PMC5218480 (PLoS ONE, 2017):

Test system: MV-4-11 cells
Assay: Gene expression microarray analysis (Affymetrix PrimeView) and GSEA
Assay type: cell-based, human
Conditions: ProbeSet 11717523_x_at; LIST B

Nc1ccc(-c2cccs2)cc1NC(=O)c1ccc2c(c1)cc(C1CC1)n2CCN1CCOCC1 [ACY-1035]
RFU, TMEM50B: 85.32 RFU
